Assay results from ChEMBL document CHEMBL1201862, “PubChem BioAssay data set” (2004).
Activity calls are given as the source filed them.

Assays:
[1] = Counterscreen for inhibitors of Trypanosoma brucei methionyl tRNA synthetase (MetRS): Luminescence-based cell-based high throughput dose response assay to identify compounds that are cytotoxic to Jurkat human T lymphocyte cells.; type: functional
[2] = molecular target: T1, Methionyl-tRNA synthetase, putative (Trypanosoma brucei brucei, UniProt Q38C91); type: functional, Trypanosoma brucei brucei strain 927/4 GUTat10.1
[3] = molecular target: T1, Methionyl-tRNA synthetase, putative; type: functional, Trypanosoma brucei brucei strain 927/4 GUTat10.1; remark: listed apart in the source
Estrogen receptor = Estrogen receptor (Homo sapiens, UniProt P03372);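 note: potency for inhibiting coactivator peptide recruitment to the receptor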
[4] = molecular target: T2, Small ubiquitin-related modifier 1 (Homo sapiens, UniProt P63165); assay: inhibitors of SUMO1 peptide binding, dose response, biochemical, fluorescence polarization, uHTS hits (AID 624382); type: functional; conditions: read-out: IC50_Mean
[5] = molecular target: T2, Small ubiquitin-related modifier 1; assay: inhibitors of SUMO1 partner interactions, dose response, biochemical, FRET (AID 624383); type: functional; conditions: read-out: IC50_Mean
Estrogen receptor beta [6] = molecular target: T3, Estrogen receptor beta (Homo sapiens, UniProt Q92731);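 note: recombinant ER-beta bound to coactivator SRC1 peptide in presence of estradiol agonist; inhibitors block coactivator peptide binding and lower the FRET signal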
Estrogen receptor beta [7] = molecular target: T3, Estrogen receptor beta; assay: ERβ–SRC-3 coactivator interaction inhibitors, confirmation, orthogonal assay, biochemical, ELISA, streptavidin-HRP readout (AID 1060)
Mu-type opioid receptor = Mu-type opioid receptor (Homo sapiens, UniProt P35372); type: functional, cell-based;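 note: U2OS cells with beta-arrestin recruitment to OPRM1 by beta-gal complementation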
[8] = molecular target: 5-hydroxytryptamine receptor 2A (Mus musculus, UniProt P35363); type: functional, cell-based;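 note: CHO-K1 cells with tagged receptor and beta-arrestin; agonist potency measured as compound-induced activation of the receptor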
[9] = ARNT/TACC3 interaction disruptors, potency, confirmation, biochemical, AlphaScreen, cherry-picked samples (AID 651703); type: functional, Homo sapiens;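 note: His-tagged ARNT PAS-B domain paired with GST-TACC3 E629A dimer coactivator fragment; potency of inhibitors that break up the complex and lower AlphaScreen signal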
[10] = molecular target: T4, Short transient receptor potential channel 4 (Mus musculus, UniProt Q9QUQ5); assay: mouse TRPC4 channel inhibitors, dose response, cell-based, HEK293 TRPC4/mu-opioid, Fluo-4 calcium (AID 434942); type: functional;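 note: potency of inhibitors blocking the TRPC4 calcium response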
T4 sequence (Q9QUQ5 whole entry): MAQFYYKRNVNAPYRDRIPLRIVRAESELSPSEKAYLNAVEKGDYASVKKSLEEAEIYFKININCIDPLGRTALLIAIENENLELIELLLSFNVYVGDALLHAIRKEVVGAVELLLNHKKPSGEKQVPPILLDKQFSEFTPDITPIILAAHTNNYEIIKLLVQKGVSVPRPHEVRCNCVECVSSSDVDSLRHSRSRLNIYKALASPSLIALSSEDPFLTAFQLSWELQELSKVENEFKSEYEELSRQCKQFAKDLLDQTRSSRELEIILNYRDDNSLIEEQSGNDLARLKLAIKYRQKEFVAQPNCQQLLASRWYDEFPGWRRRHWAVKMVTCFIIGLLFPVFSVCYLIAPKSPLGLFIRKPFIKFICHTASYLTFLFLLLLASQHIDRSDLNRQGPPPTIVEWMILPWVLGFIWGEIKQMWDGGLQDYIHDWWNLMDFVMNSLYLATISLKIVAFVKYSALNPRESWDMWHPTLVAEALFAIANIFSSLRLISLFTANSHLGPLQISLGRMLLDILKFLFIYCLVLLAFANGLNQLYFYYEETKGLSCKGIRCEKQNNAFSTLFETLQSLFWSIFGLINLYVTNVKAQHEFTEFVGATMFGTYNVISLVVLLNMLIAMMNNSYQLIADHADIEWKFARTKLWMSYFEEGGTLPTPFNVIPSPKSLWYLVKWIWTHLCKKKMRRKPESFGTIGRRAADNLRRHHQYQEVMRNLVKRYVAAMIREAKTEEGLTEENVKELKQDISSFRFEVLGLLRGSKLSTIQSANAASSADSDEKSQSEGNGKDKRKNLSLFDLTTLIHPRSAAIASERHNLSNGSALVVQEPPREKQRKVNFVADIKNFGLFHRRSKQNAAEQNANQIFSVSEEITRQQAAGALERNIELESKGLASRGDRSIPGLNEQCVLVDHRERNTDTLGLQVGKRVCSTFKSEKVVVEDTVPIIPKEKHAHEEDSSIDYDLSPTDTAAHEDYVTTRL

[11] = molecular target: T4, Short transient receptor potential channel 4; assay: mouse TRPC4 channel activators, dose response, cell-based, HEK293 TRPC4/mu-opioid, Fluo-4 calcium (AID 434937); type: functional

T3 sequence (Q92731 whole entry): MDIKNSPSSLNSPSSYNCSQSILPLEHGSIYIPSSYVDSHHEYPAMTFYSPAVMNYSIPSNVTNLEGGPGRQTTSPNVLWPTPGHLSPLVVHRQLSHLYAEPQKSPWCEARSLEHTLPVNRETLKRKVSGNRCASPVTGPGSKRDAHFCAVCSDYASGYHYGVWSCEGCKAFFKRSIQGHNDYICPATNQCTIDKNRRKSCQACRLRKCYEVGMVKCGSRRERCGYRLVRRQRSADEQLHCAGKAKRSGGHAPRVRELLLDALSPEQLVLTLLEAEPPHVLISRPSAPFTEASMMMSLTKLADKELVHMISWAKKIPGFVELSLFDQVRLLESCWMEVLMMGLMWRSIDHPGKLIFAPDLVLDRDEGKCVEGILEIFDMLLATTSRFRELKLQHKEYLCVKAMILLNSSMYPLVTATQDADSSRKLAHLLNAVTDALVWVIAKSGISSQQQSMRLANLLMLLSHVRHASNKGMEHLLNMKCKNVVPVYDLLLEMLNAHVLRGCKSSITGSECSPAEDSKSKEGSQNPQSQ
T2 sequence (P63165 whole entry): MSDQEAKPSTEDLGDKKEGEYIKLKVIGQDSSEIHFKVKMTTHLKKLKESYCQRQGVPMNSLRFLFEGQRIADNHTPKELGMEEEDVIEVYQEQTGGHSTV
T1 sequence (Q38C91 whole entry): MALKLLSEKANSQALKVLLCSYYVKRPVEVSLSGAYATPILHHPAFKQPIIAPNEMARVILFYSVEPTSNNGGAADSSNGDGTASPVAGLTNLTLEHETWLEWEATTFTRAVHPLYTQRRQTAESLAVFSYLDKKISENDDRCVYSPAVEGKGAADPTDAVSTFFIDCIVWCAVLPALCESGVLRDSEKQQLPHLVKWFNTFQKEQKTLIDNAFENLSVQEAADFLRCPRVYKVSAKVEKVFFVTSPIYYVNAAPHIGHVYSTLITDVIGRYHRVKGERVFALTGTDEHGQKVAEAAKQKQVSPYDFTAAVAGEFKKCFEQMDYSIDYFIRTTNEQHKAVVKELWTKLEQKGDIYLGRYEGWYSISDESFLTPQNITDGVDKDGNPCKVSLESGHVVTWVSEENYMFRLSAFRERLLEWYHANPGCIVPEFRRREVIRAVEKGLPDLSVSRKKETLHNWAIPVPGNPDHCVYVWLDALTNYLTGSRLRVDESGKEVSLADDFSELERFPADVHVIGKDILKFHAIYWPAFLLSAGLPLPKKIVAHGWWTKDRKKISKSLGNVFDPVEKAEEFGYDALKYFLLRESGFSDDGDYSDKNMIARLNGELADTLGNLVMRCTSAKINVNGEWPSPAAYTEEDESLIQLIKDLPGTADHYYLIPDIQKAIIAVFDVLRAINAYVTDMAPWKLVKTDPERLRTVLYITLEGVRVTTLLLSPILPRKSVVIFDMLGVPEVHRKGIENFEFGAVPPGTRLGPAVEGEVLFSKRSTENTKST
Chain of 5-hydroxytryptamine receptor 2A (P35363 whole entry, the tested form may be a part): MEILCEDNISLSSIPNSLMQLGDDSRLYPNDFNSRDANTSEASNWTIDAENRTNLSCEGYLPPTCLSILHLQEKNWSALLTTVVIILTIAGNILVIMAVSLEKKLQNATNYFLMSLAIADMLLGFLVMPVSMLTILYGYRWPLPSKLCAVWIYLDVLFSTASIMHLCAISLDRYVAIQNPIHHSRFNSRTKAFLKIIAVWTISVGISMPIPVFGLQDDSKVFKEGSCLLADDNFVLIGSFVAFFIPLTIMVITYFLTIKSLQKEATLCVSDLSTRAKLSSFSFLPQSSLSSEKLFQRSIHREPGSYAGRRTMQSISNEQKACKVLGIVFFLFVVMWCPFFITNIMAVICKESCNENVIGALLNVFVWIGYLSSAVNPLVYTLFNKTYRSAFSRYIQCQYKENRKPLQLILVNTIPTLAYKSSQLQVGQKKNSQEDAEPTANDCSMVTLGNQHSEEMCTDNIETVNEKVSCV
Chain of Mu-type opioid receptor (P35372 whole entry): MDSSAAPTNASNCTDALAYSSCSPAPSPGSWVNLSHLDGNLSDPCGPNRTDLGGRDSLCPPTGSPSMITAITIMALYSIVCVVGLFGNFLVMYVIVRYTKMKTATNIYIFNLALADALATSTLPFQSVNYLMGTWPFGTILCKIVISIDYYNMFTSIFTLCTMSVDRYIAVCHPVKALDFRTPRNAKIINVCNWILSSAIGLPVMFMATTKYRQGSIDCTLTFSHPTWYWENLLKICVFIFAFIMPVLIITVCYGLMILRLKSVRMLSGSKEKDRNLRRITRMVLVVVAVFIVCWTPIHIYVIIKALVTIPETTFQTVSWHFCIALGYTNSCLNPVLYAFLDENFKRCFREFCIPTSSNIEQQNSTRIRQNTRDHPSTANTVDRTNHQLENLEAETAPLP
Chain of Estrogen receptor (P03372 whole entry): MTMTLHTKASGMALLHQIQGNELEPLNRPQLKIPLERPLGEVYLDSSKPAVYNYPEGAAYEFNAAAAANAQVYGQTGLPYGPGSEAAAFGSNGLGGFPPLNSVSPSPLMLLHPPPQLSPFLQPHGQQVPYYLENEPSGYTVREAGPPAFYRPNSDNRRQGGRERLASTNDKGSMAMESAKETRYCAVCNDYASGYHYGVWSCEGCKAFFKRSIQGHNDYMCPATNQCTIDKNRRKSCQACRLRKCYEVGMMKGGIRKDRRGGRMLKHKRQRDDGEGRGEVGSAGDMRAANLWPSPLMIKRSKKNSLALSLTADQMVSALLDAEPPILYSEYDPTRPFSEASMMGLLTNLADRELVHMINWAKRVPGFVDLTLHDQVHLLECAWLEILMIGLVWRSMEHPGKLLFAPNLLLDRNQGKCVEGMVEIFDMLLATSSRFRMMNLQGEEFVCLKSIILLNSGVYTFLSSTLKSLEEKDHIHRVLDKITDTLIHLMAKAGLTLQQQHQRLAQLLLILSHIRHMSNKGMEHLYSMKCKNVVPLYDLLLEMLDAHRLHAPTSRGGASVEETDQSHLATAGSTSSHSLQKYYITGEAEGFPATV

Cc1cccc(NC(=O)CCNC(=O)c2ccc(Br)cc2)c1
IC50 [1]: 83.3 µM (inactive) | IC50 [2]: 5.8 µM (active) | IC50 [3]: 12.9 µM (inactive)

Cc1nc2cc(-c3ccsc3-n3c(C)ccc3C)nn2c(O)c1Cl
IC50 (Estrogen receptor): 27.5 µM (active) | IC50 [4]: > 66.6 µM (inactive) | IC50 [5]: 10.7 µM (active) | IC50 (Estrogen receptor beta [6]): 7.66 µM (active) | IC50 (Estrogen receptor beta [7]): 1.53 µM (not active)

O=C(NCCCN1CCN(c2ccccc2F)CC1)C1CCC(=O)N1C1CCCCC1 (stereo not drawn)
EC50 (Mu-type opioid receptor): 92.5 µM (inactive) | EC50 [8]: 76.1 µM (inactive)

COc1cccc(CNCc2ccccn2)c1OC
AC50 [9]: 116 µM (active) | EC50 [10]: 0.299 µM (active) | EC50 [11]: 0.267 µM (active)
